The record followed here is ChEMBL document CHEMBL4219250, “Kröhnke pyridines: Rapid and facile access to Mcl-1 inhibitors” (Bioorg Med Chem Lett, 2018).

Active and inactive are the calls of the source. No cut-off for these calls is given here.

For one experiment, the target named is T1, Induced myeloid leukemia cell differentiation protein Mcl-1 (Homo sapiens, UniProt Q07820). Put plainly: Binding affinity to 15N-labeled His6-MBP-tagged recombinant human MCl-1 (172 to 327 residues) expressed in HMS174 (DE3) cells by two-dimensional1H-15N HSQC NMR spectra method. It is filed as cell-based.
T1 sequence (Q07820 whole entry, the tested form may be a part): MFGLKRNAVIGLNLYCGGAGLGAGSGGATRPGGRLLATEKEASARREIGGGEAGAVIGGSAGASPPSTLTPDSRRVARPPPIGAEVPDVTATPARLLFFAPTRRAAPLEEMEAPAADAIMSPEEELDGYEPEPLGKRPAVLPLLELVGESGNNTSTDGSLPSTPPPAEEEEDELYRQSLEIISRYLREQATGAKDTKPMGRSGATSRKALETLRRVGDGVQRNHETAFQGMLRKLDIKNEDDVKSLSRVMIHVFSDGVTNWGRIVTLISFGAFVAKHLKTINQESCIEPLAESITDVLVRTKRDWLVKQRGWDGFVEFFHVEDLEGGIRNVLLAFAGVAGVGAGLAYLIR
As for `O=C(O)c1cc(-c2ccc(Br)cc2)nc(-c2ccc(Oc3ccccc3)cc2)c1`, the outcome was Active.

A further experiment concerns the target T1, Induced myeloid leukemia cell differentiation protein Mcl-1. Put plainly: Displacement of TAMRA-Bak peptide from His6-MBP-tagged recombinant human MCl-1 (172 to 327 residues) expressed in HMS174 (DE3) cells by fluorescence polarization assay. A general note: In fluorescence polarisation assays a small probe gives low polarisation when free and higher when bound to something large.
In general, Ki refers to the equilibrium dissociation constant of an inhibitor or competing ligand from its target. Turning to `O=C(O)c1cc(-c2ccc(Oc3ccccc3)cc2)cc(-c2cccc(Br)c2)n1`, the Ki was 8.47 µM.

On to `COc1ccc(-c2cc(-c3ccc(Oc4ccccc4)cc3)cc(C(=O)O)n2)cc1`, for which the Ki worked out at 10.9 µM.

Turning to `O=C(O)c1cc(-c2ccc(Br)cc2)cc(-c2ccc(Cl)cc2)n1`, the Ki is 40 µM.

Consider `COc1ccc(-c2cc(-c3ccc(Br)cc3)cc(C(=O)O)n2)cc1`, for which the Ki is 40 µM.

As for `O=C(O)c1cc(-c2ccc(Oc3ccccc3)cc2)cc(-c2ccc([N+](=O)[O-])cc2)n1`, the Ki was determined as 13.7 µM.

Take `CC(C)Oc1ccc(-c2cc(C(=O)O)nc(-c3ccc(OC(C)C)cc3)c2)cc1`: the Ki was 28.8 µM.

With `O=C(O)c1cc(-c2ccc(Br)cc2)cc(-c2ccc3c(c2)OCO3)n1`, the Ki was over 100 µM.

Take `CC(C)Oc1ccc(-c2cc(-c3ccc(Oc4ccccc4)cc3)cc(C(=O)O)n2)cc1`: the Ki was determined as 7.33 µM.

Turning to `O=C(O)c1cc(-c2ccc(OCc3ccccc3)cc2)cc(-c2ccc(OCc3ccccc3)cc2)n1`, the Ki was found to be 9.22 µM.

As for `O=C(O)c1cc(-c2ccc(Oc3ccccc3)cc2)cc(-c2ccccc2)n1`, the Ki stood at 9.24 µM.

In the case of `O=C(O)c1cc(-c2ccc(Br)cc2)cc(-c2ccc(OCc3ccccc3)cc2)n1`, the Ki came out at 7.6 µM.

`O=C(O)c1cc(-c2ccc(Br)cc2)cc(-c2ccc(Br)cc2)n1`: the Ki came out at 40 µM.

Turning to `CC(C)Oc1ccc(-c2cc(C(=O)O)nc(-c3ccc(OC(C)C)cc3OC(C)C)c2)cc1`, the Ki worked out at 19.7 µM.

For the compound `O=C(O)c1cc(-c2ccc(Br)cc2)cc(-c2ccccc2)n1`, the Ki was determined as 100 µM.

As to `O=C(O)c1cc(-c2ccc(Oc3ccccc3)cc2)cc(-c2ccc(OCc3ccccc3)cc2)n1`, the Ki was found to be 6.1 µM.

Consider `O=C(O)c1cc(-c2ccc(Oc3ccccc3)cc2)cc(-c2ccccc2Br)n1`, for which the Ki came out at 10.3 µM.

As to `O=C(O)c1cc(-c2ccc(Br)cc2)nc(-c2ccc(Oc3ccccc3)cc2)c1`, the Ki turned out to be 4.43 µM.

For the compound `O=C(O)c1cc(-c2ccc(Oc3ccccc3)cc2)cc(-c2ccc3c(c2)OCO3)n1`, the Ki was found to be 38.2 µM.

As to `CC(C)Oc1ccc(-c2cc(C(=O)O)nc(-c3ccc(OCc4ccccc4)cc3)c2)cc1`, the Ki was 9.77 µM.

As to `O=C(O)c1cc(-c2ccc(Oc3ccccc3)cc2)cc(-c2ccc(Br)cc2)n1`, the Ki was 7.44 µM.
